In patent publication US10201564B2, “Methods of using inhaled nitric oxide gas for treatment of acute respiratory distress syndrome in children” (Mallinckrodt Hospital Products IP Limited, priority 2014, dated 2019):

Tested on: pediatric subjects with acute hypoxemic respiratory failure (AHRF)
Test: Pediatric AHRF study: adverse events, serious adverse events, deaths, discontinuations
Format: in vivo, human
Settings: 5 ppm
Procedure: This was a prospective, multicenter, randomized, double-blind, placebo-controlled, parallel-group study of the safety and efficacy of inhaled nitric oxide in pediatric subjects with acute hypoxemic respiratory failure (AHRF). The subjects were randomized to receive either 5 ppm inhaled nitric oxide or placebo.
Nitric Oxide for inhalation at 5 ppm was administered continuously into the inspiratory limb of the ventilator circuit in mechanically ventilated subjects using a blinded version of the INOvent® delivery system.
Subjects received 100% treatment gas (nitric oxide 5 ppm or placebo [nitrogen gas]) until Day 28 or extubation, whichever occurred first.
This was a prospective, multicenter, randomized, double-blind, placebo-controlled, Phase III study to assess the effects of nitric oxide for inhalation in the treatment of acute hypoxic respiratory failure (AHRF) in pediatric subjects. The study population consisted of male and female pediatric subjects, aged 44 weeks postconceptional age to 16 years age, who were admitted to the pediatric intensive care unit (PICU) and who required intubation because of AHRF. The inclusion/exclusion criteria are described in the Patients section below.
Standardized ventilatory management and weaning procedures were used. Ventilatory management was used based on an “open lung approach” using positive end-expiratory pressure (PEEP) to increase lung volume and limiting tidal volumes to reduce plateau pressures. Subjects received nitric oxide for inhalation at 5 ppm or placebo (100% Grade 5 nitrogen gas) into the inspiratory limb of the ventilator circuit using a blinded version of the INOvent® delivery system. The subjects were treated until Day 28 or extubation, whichever occurred first. Subjects were assessed daily using a spontaneous breathing trial, according to the institution's standard of care. Arterial blood gases (ABG), ventilator settings, methemoglobin, oxygenation index, systolic blood pressure, diastolic blood pressure, Pediatric Risk of Mortality (PRISM) III score, and subject positioning (prone or supine) were performed/recorded at specified times during the study. Selected centers also performed plasma cytokine assays, bronchoalveolar lavage fluid (BALF) assays, and a 6-month follow-up assessment.

[1] = AE with death as outcome, not suspected related to treatment
[2] = AE with death as outcome, suspected related to treatment
[3] = relationship to study treatment Not Suspected
[4] = relationship to study treatment Suspected

With [N]=O [Nitric Oxide, nitric oxide] the Hepatic failure [1] was 0 (0.0) n (%), the Hypotension [1] was 1 (3.8%) n (%) and the Intracranial pressure increased [1] was 0 (0.0) n (%). For the same compound, the Multi-organ failure [1] was 0 (0.0) n (%), the Pancreatitis [1] was 0 (0.0) n (%) and the “Pneumonia, aspergillus” value [1] was 0 (0.0) n (%). The Pulmonary hemorrhage [1] was 0 (0.0) n (%), the Renal failure [1] was 0 (0.0) n (%) and the Renal impairment [1] was 0 (0.0) n (%). The Sepsis [1] was 0 (0.0) n (%), the Bradycardia [2] was 0 (0.0) n (%) and the Brain edema [2] was 0 (0.0) n (%). The Cardiac arrest [2] was 0 (0.0) n (%), the Diabetic ketoacidosis [2] was 0 (0.0) n (%) and the Hemolytic anemia [2] was 0 (0.0) n (%). For the same compound, the Hepatic failure [2] was 0 (0.0) n (%), the Hypotension [2] was 0 (0.0) n (%) and the Intracranial pressure increased [2] was 0 (0.0) n (%). For the same compound, the Multi-organ failure [2] was 0 (0.0) n (%), the Pancreatitis [2] was 0 (0.0) n (%) and the “Pneumonia, aspergillus” value [2] was 0 (0.0) n (%). For the same compound, the Pulmonary hemorrhage [2] was 0 (0.0) n (%), the Renal failure [2] was 0 (0.0) n (%) and the Renal impairment [2] was 0 (0.0) n (%). For the same compound, the Sepsis [2] was 0 (0.0) n (%), the “Adverse event where treatment was stopped: Bradycardia, subjects n (%)” value (by actual treatment received) was 1 (3.8%) and the “Adverse event where treatment was stopped: Hypotension, subjects n (%)” value (by actual treatment received) was 1 (3.8%). The “Adverse event where treatment was stopped: Pulmonary hemorrhage, subjects n (%)” value (by actual treatment received) was 0 (00) ^, the “Adverse event where treatment was stopped: Sepsis, subjects n (%)” value (by actual treatment received) was 0 (0.0)^ and the “Serious adverse event: Bradycardia, subjects n (%)” value (by actual treatment received) was 1 (3.8%). For the same compound, the “Serious adverse event: Brain edema, subjects n (%)” value (by actual treatment received) was 0 (0.0), the “Serious adverse event: Cardiac arrest, subjects n (%)” value (by actual treatment received) was 0 (0.0) and the “Serious adverse event: Cerebral artery occlusion, subjects n (%)” value (by actual treatment received) was 0 (0.0). The “Serious adverse event: Diabetic ketoacidosis, subjects n (%)” value (by actual treatment received) was 0 (0.0), the “Serious adverse event: Hemolytic anemia, subjects n (%)” value (by actual treatment received) was 0 (0.0) and the “Serious adverse event: Hemopneumothorax, subjects n (%)” value (by actual treatment received) was 0 (0.0). The “Serious adverse event: Hemothorax, subjects n (%)” value (by actual treatment received) was 0 (0.0), the “Serious adverse event: Hepatic failure, subjects n (%)” value (by actual treatment received) was 0 (0.0) and the “Serious adverse event: Hypotension, subjects n (%)” value (by actual treatment received) was 1 (3.8%). The “Serious adverse event: Hypoxia, subjects n (%)” value (by actual treatment received) was 0 (0.0), the “Serious adverse event: Intracranial pressure increased, subjects n (%)” value (by actual treatment received) was 0 (0.0) and the “Serious adverse event: Multi-organ failure, subjects n (%)” value (by actual treatment received) was 0 (0.0). The “Serious adverse event: Pancreatitis, subjects n (%)” value (by actual treatment received) was 0 (0.0), the “Serious adverse event: Pneumonia, aspergillus, subjects n (%)” value (by actual treatment received) was 0 (0.0) and the “Serious adverse event: Pulmonary hemorrhage, subjects n (%)” value (by actual treatment received) was 0 (0.0). The “Serious adverse event: Renal failure, acute, subjects n (%)” value (by actual treatment received) was 0 (0.0), the “Serious adverse event: Renal failure, subjects n (%)” value (by actual treatment received) was 0 (0.0) and the “Serious adverse event: Renal impairment, subjects n (%)” value (by actual treatment received) was 0 (0.0). The “Serious adverse event: Respiratory failure, subjects n (%)” value (by actual treatment received) was 0 (0.0), the “Serious adverse event: Sepsis, subjects n (%)” value (by actual treatment received) was 0 (0.0) and the “Serious adverse event: Subdural hematoma, subjects n (%)” value (by actual treatment received) was 0 (0.0). The “Serious adverse event: Unevaluable event, subjects n (%)” value (by actual treatment received) was 0 (0.0), the “likelihood to experience adverse events versus placebo” value (in words) was “no more likely” and the “overall safety and tolerability in children with AHRF” value (in words) was “safe and well tolerated”. For the same compound, the “safety profile versus placebo (methemoglobin levels, frequency of AEs, mortality rates)” value (in words) was “compare favorably”, the “Subjects with one or more AEs” value (n = 26) was 16 (61.5%) n (%) and the “Subjects with one or more AEs suspected to be related to study treatment” value (n = 26) was 0 (0)^ ^ n (%). The “Subjects with one or more SAEs” value (n = 26) was 1 (3.9%) n (%), the “Subjects with one or more severe AEs” value (n = 26) was 2 (7.7%) n (%) and the “Subjects withdrawn due to AEs” value (n = 26) was 1 (3.9%) n (%). For the same compound, the “Total AEs leading to discontinuation of study treatment” value (n = 26) was 2, the “Total AEs suspected to be related to study treatment” value (n = 26) was 0 and the “Total SAEs” value (n = 26) was 2. For the same compound, the “Total SAEs or AEs leading to discontinuation of study treatment suspected to be related to study treatment” value (n = 26) was 0, the “Total severe AEs” value (n = 26) was 4 and the “Total AEs” value (n = 26, counted by dictionary-derived term) was 52. For the same compound, the “Adverse event where treatment was stopped: Bradycardia, subjects n (%)” value [3] was 1 (3.8%), the “Adverse event where treatment was stopped: Hypotension, subjects n (%)” value [3] was 1 (3.8%) and the “Adverse event where treatment was stopped: Pulmonary hemorrhage, subjects n (%)” value [3] was 0 (0.0)^. The “Adverse event where treatment was stopped: Sepsis, subjects n (%)” value [3] was 0 (0.0)^, the “Serious adverse event: Bradycardia, subjects n (%)” value [3] was 1 (3.8%) and the “Serious adverse event: Brain edema, subjects n (%)” value [3] was 0 (0.0). For the same compound, the “Serious adverse event: Cardiac arrest, subjects n (%)” value [3] was 0 (0.0), the “Serious adverse event: Cerebral artery occlusion, subjects n (%)” value [3] was 0 (0.0) and the “Serious adverse event: Diabetic ketoacidosis, subjects n (%)” value [3] was 0 (0.0). The “Serious adverse event: Hemolytic anemia, subjects n (%)” value [3] was 0 (0.0), the “Serious adverse event: Hemopneumothorax, subjects n (%)” value [3] was 0 (0.0) and the “Serious adverse event: Hemothorax, subjects n (%)” value [3] was 0 (0.0). The “Serious adverse event: Hepatic failure, subjects n (%)” value [3] was 0 (0.0), the “Serious adverse event: Hypotension, subjects n (%)” value [3] was 1 (3.8%) and the “Serious adverse event: Hypoxia, subjects n (%)” value [3] was 0 (0.0). The “Serious adverse event: Intracranial pressure increased, subjects n (%)” value [3] was 0 (0.0), the “Serious adverse event: Multi-organ failure, subjects n (%)” value [3] was 0 (0.0) and the “Serious adverse event: Pancreatitis, subjects n (%)” value [3] was 0 (0.0). For the same compound, the “Serious adverse event: Pneumonia, aspergillus, subjects n (%)” value [3] was 0 (0.0), the “Serious adverse event: Pulmonary hemorrhage, subjects n (%)” value [3] was 0 (0.0) and the “Serious adverse event: Renal failure, acute, subjects n (%)” value [3] was 0 (0.0). For the same compound, the “Serious adverse event: Renal failure, subjects n (%)” value [3] was 0 (0.0), the “Serious adverse event: Renal impairment, subjects n (%)” value [3] was 0 (0.0) and the “Serious adverse event: Respiratory failure, subjects n (%)” value [3] was 0 (0.0). For the same compound, the “Serious adverse event: Sepsis, subjects n (%)” value [3] was 0 (0.0), the “Serious adverse event: Subdural hematoma, subjects n (%)” value [3] was 0 (0.0) and the “Serious adverse event: Unevaluable event, subjects n (%)” value [3] was 0 (0.0). The “Adverse event where treatment was stopped: Bradycardia, subjects n (%)” value [4] was 0 (0.0), the “Adverse event where treatment was stopped: Hypotension, subjects n (%)” value [4] was 0 (0.0) and the “Adverse event where treatment was stopped: Pulmonary hemorrhage, subjects n (%)” value [4] was 0 (0.0). The “Adverse event where treatment was stopped: Sepsis, subjects n (%)” value [4] was 0 (0.0), the “Serious adverse event: Bradycardia, subjects n (%)” value [4] was 0 (0.0) and the “Serious adverse event: Brain edema, subjects n (%)” value [4] was 0 (0.0). For the same compound, the “Serious adverse event: Cardiac arrest, subjects n (%)” value [4] was 0 (0.0), the “Serious adverse event: Cerebral artery occlusion, subjects n (%)” value [4] was 0 (0.0) and the “Serious adverse event: Diabetic ketoacidosis, subjects n (%)” value [4] was 0 (0.0). The “Serious adverse event: Hemolytic anemia, subjects n (%)” value [4] was 0 (0.0), the “Serious adverse event: Hemopneumothorax, subjects n (%)” value [4] was 0 (0.0) and the “Serious adverse event: Hemothorax, subjects n (%)” value [4] was 0 (0.0). The “Serious adverse event: Hepatic failure, subjects n (%)” value [4] was 0 (0.0).
